Data reported in patent US8883841B2, “Oncogenic ras-specific cytotoxic compound and methods of use thereof” (The Board of Regents of the University of Texas System, priority 2005, dated 2014).
Where two headings read alike, the source gives them in different places.

Experiments:
PKCiota = experiment: Immunohistochemical staining, subcellular localization of PKCiota; assay type: cell-based, human; details: 12 h; comparators at doses giving similar cell killing
Experimental: Effects on subcellular localization of PKCiota. […] To further investigate molecular mechanisms of Oncrasin action the inventors studied the subcellular localization of several molecules involved in Ras-signaling pathway because the functions of Ras and other proteins are directly related to their subcellular localizations. For this purpose, T29Kt1 or H460 cells were seeded on cover glass slides and treated with DMSO or Oncrasin-1 for 12 h. Cells were then fixed with paraformaldehyde, permeabilized with Triton X-100 and stained with various antibodies for immunohistochemical examination. […] Nevertheless, substantial subcellular localization change was detected for PKCiota after Oncrasin-1 treatment (FIG. 6). In both H460 and T29Kt1 cells, both PKCiota and PKCzeta were diffusely distributed in cells with high concentration on cell membrane in nucleus, consisting with previous reports that aPKC contains both nuclear localization signal (NLS) and nuclear export signal (NES), and can shuttle between cytoplasm and nucleus, which was regulated by intramolecular conformational changes, phosphorylation or by treatment with growth factors (Perander et al., 2001; White et al., 2002; Neri et al., 1999). […] Such aggregation of PKCiota was not observed in Oncrasin-resistant T29 and H1299 cells. The inventors then tested whether PKCiota aggregation in the nucleus can be induced by other chemotherapeutic agents such as 5-fluorouracil (5-FU) and paclitaxol.

T29 cells [1] = tested on: T29 cells
T29Kt1 cells [2] = details: for IC50 in T29k cells: Table 1, value is the negative log10 of mol/L
H460 cells [3] = details: up to 100 μM
H226B cells = experiment: Cell viability, H226B lung cancer cells; assay type: cell-based, human; details: for IC50: Homo sapiens; for IC50 (−LogM): H226B, Lung, listed as Onk29
A549 cells = experiment: Cell viability, A549 lung cancer cells; assay type: cell-based, human; details: for IC50 (−LogM): A549, Lung
A549CK8 = experiment: Cell viability, A549CK8 lung cancer cells; assay type: cell-based, human; details: Homo sapiens, read-out: IC50 (−LogM) (converted)
Hct116 = experiment: Cell viability, Hct116 colon cancer cells; assay type: cell-based, human; details: for IC50: Homo sapiens, HCT-116, read-out: IC50 (−LogM), Hct116, Colon (converted)
CT116P53 = experiment: Cell viability, CT116P53 colon cancer cells; assay type: cell-based, human; details: Homo sapiens, read-out: IC50 (−LogM) (converted)
HKE3 = experiment: Cell viability, HKE3 colon cancer cells; assay type: cell-based, human; details: for IC50: Homo sapiens; for IC50 (−LogM): HKE3, Colon
H322 cells = experiment: Cell viability, H322 lung cancer cells; assay type: cell-based, human; details: Homo sapiens, NCI-H322, read-out: IC50 (−LogM) (converted)
H1299 cells = experiment: Cell viability, H1299 lung cancer cells; assay type: cell-based, human; details: for IC50: Homo sapiens, NCI-H1299, read-out: IC50 (−LogM), h1299, Lung (converted)
AsPC-1 = experiment: Cell viability, AsPC-1 pancreatic cancer cells; assay type: cell-based, human; details: for IC50: Homo sapiens, ASPC1, read-out: IC50 (−LogM), ASPC1, Pancrease (converted)
DLD1 = experiment: Cell viability, DLD1 colon cancer cells; assay type: cell-based, human; details: Homo sapiens, DLD-1, read-out: IC50 (−LogM) (converted)
Heb46 = experiment: Cell viability, Heb46 kidney cells; assay type: cell-based
Heb44 = experiment: Cell viability, Heb44 kidney cells; assay type: cell-based
Capanc-1 = experiment: Cell viability, Capanc-1 pancreatic cancer cells; assay type: cell-based, human; details: for IC50 (−LogM): capanc1, Pancrease
miapac = experiment: Cell viability, miapac pancreatic cancer cells; assay type: cell-based, human; details: Homo sapiens, Pancreatic cancer cell, read-out: IC50 (−LogM) (converted)
H2122 = experiment: Cell viability, H2122 lung cancer cells; assay type: cell-based, human; details: Homo sapiens, NCI-H2122, read-out: IC50 (−LogM) (converted)
H2009 = experiment: Cell viability, H2009 lung cancer cells; assay type: cell-based, human; details: Homo sapiens, NCI-H2009, read-out: IC50 (−LogM) (converted)
H23 = experiment: Cell viability, H23 lung cancer cells; assay type: cell-based, human; details: Homo sapiens, NCI-H23, read-out: IC50 (−LogM) (converted)
H1933 = experiment: Cell viability, H1933 lung cancer cells; assay type: cell-based, human; details: Homo sapiens, read-out: IC50 (−LogM) (converted)
H1395 = experiment: Cell viability, H1395 lung cancer cells; assay type: cell-based, human; details: Homo sapiens, NCI-H1395, read-out: IC50 (−LogM) (converted)
H2087 = experiment: Cell viability, H2087 lung cancer cells; assay type: cell-based, human; details: Homo sapiens, NCI-H2087, read-out: IC50 (−LogM) (converted)
Ovcar3 = experiment: Cell viability, Ovcar3 ovary cancer cells; assay type: cell-based; details: Homo sapiens, OVCAR-3
Ovcar443 = experiment: Cell viability, Ovcar443 ovary cancer cells; assay type: cell-based
Hey = experiment: Cell viability, Hey ovary cancer cells; assay type: cell-based
Ovca429 = experiment: Cell viability, Ovca429 ovary cancer cells; assay type: cell-based
SKOV3 = experiment: Cell viability, SKOV3 ovary cancer cells; assay type: cell-based; details: Homo sapiens, SK-OV-3
T29 cells [4] = experiment: cells; details: Homo sapiens, T29, read-out: IC50 in T29 cells
T29Kt1 cells [5] = experiment: cells; details: Homo sapiens, T29Kt1, read-out: IC50 in T29k cells, Table 1
H460 cells [6] = experiment: cells; details: Homo sapiens
Sw620 = experiment: Cell viability, Sw620 colon cancer cells; assay type: cell-based, human
[7] = at any of the doses tested (dose response)
[8] = up to 100 μM, the highest concentration tested
[9] = read-out: IC50 (−LogM), H226B, Lung, first H226B line (converted)
[10] = read-out: IC50 (−LogM), H226B, Lung, second H226B line (converted)
[11] = NCI-H460, read-out: IC50 (−LogM), H460, Lung (converted)
[12] = NCI-H460, read-out: IC50 in H460 cells, Table 1

For `CC(=O)O[C@H]1C(=O)[C@@]2(C)[C@H]([C@H](OC(=O)c3ccccc3)[C@]3(O)C[C@H](OC(=O)[C@H](O)[C@@H](NC(=O)c4ccccc4)c4ccccc4)C(C)=C1C3(C)C)[C@]1(OC(C)=O)CO[C@@H]1C[C@@H]2O` [taxol, paclitaxol, reference compound], the “PKCiota aggregation in the nucleus, T29Kt1 cells” value (PKCiota) was “did not induce PKCiota aggregation”.

In the case of `OCc1c[nH]c2ccccc12` [indole-3-carbinol, reference compound], the “toxicity to T29 cells” value (T29 cells [1]; [7]) is reported as “did not induce any cytotoxicity”, the “cytotoxicity in T29 cells” value (T29 cells [1]; [8]) is reported as “did not have any cytotoxic effects” and the “toxicity to T29K cells” value (T29Kt1 cells [2]; same dose range as tested for the leader) is reported as “did not induce any cytotoxicity”. For the same compound, the “cytotoxicity in T29Kt1 cells” value (T29Kt1 cells [2]; up to 100 μM) was “did not have any cytotoxic effects”, the “toxicity to T29Ht1 (T29H) cells” value (T29Ht1 cells; [7]) was “did not induce any cytotoxicity” and the “cytotoxicity in T29Ht1 cells” value (T29Ht1 cells; [8]) was “did not have any cytotoxic effects”. The “cytotoxicity in H460 cells” value (H460 cells [3]) was “did not have any cytotoxic effects”.

`O=Cc1cn(Cc2cccc([N+](=O)[O-])c2)c2ccccc12` [Oncrasin K68, 1-(3-nitrobenzyl)-1H-indole-3-carbaldehyde] showed an IC50 (H226B cells; [9]) of 0.00251 µM, an IC50 (H226B cells; [10]) of 0.0631 µM and an IC50 (A549 cells; Homo sapiens, A549, read-out: IC50 (−LogM), A549, Lung (converted)) of 5.01 µM. The IC50 (A549CK8) was 3.16 µM, the IC50 (Hct116) was 0.158 µM and the IC50 (CT116P53) was less than 31.6 µM. The IC50 (HKE3; read-out: IC50 (−LogM), HKE3, Colon, first HKE3 line (converted)) was 0.1 µM, the IC50 (HKE3; read-out: IC50 (−LogM), HKE3, Colon, second HKE3 line (converted)) was 0.398 µM and the IC50 (H322 cells) was 31.6 µM. It also gave an IC50 (H1299 cells) of 10 µM, an IC50 (AsPC-1) of 2 µM and an IC50 (DLD1) of less than 31.6 µM. It also gave an IC50 (Heb46) of 0.2 µM, an IC50 (Heb44) of 0.01 µM and an IC50 (Capanc-1; Homo sapiens, Pancreatic cancer cell, read-out: IC50 (−LogM), capanc1, Pancrease (converted)) of 31.6 µM. It also gave an IC50 (miapac) of less than 31.6 µM, an IC50 (H2122) of 1 µM and an IC50 (H2009) of 31.6 µM. For the same compound, the IC50 (H23) was 31.6 µM, the IC50 (H1933) was 25.1 µM and the IC50 (H1395) was less than 31.6 µM. The IC50 (H2087) was 31.6 µM, the IC50 (Ovcar3) was 0.158 µM and the IC50 (Ovcar443) was 10 µM. It also gave an IC50 (Hey) of less than 31.6 µM, an IC50 (Ovca429) of 31.6 µM and an IC50 (SKOV3) of 1 µM. It also gave an IC50 (T29 cells [4]) of 31.6 µM, an IC50 (T29Kt1 cells [5]) of 0.501 µM and an IC50 (H460 cells [6]; [11]) of 0.0398 µM. It also gave an IC50 (H460 cells [6]; [12]) of 0.0398 µM.

With `O=Cc1cn(Cc2ccc(Br)cc2)c2ccccc12` [Oncrasin K029, 1-(4-bromobenzyl)-1H-indole-3-carbaldehyde] the “IC50 (−LogM)” value (H226B cells; first H226B line) was 7.1 −LogM, the “IC50 (−LogM)” value (H226B cells; second H226B line) was 5.5 −LogM and the IC50 (H226B cells; [9]) was 0.126 µM. The IC50 (H226B cells; [10]) was 5.01 µM, the “IC50 (−LogM)” value (A549 cells; listed as OnK29) was 5 −LogM and the “IC50 (−LogM)” value (A549 cells; listed as Onk29) was >4.5 −LogM. For the same compound, the IC50 (A549CK8) was 3.16 µM, the “IC50 (−LogM)” value (Hct116; Hct116, Colon, listed as OnK29) was 5.5 −LogM and the IC50 (Hct116) was 2.51 µM. The IC50 (CT116P53) was less than 31.6 µM, the “IC50 (−LogM)” value (HKE3; first HKE3 line, listed as OnK29) was 6.6 −LogM and the “IC50 (−LogM)” value (HKE3; first HKE3 line, listed as Onk29) was 7 −LogM. The “IC50 (−LogM)” value (HKE3; second HKE3 line, listed as OnK29) was 5.8 −LogM, the “IC50 (−LogM)” value (HKE3; second HKE3 line, listed as Onk29) was 6.3 −LogM and the IC50 (H322 cells) was 31.6 µM. The IC50 (H1299 cells) was 12.6 µM, the “IC50 (−LogM)” value (H1299 cells; h1299, Lung, listed as OnK29) was 5.1 −LogM and the “IC50 (−LogM)” value (AsPC-1; ASPC1, Pancrease, listed as OnK29) was 5.3 −LogM. The IC50 (AsPC-1) was 3.98 µM, the IC50 (DLD1) was less than 31.6 µM and the “IC50 (−LogM)” value (Heb46; listed as OnK29) was 5.6 −LogM. The “IC50 (−LogM)” value (Heb46; listed as Onk29) was 6.6 −LogM, the “IC50 (−LogM)” value (Heb44; listed as OnK29) was 7.2 −LogM and the “IC50 (−LogM)” value (Heb44; listed as Onk29) was 8.1 −LogM. For the same compound, the “IC50 (−LogM)” value (Capanc-1; listed as OnK29) was 5 −LogM, the “IC50 (−LogM)” value (Capanc-1; listed as Onk29) was 6 −LogM and the IC50 (Sw620; Homo sapiens, SW-620, read-out: IC50 (−LogM), Sw620, Colon (converted)) was 31.6 µM. For the same compound, the “IC50 (−LogM)” value (Sw620; Sw620, Colon, listed as OnK29) was >4.5 −LogM, the IC50 (miapac) was less than 31.6 µM and the IC50 (H2122) was 2 µM. The IC50 (H2009) was less than 31.6 µM, the IC50 (H23) was 31.6 µM and the IC50 (H1933) was 31.6 µM. For the same compound, the IC50 (H1395) was 31.6 µM, the IC50 (H2087) was 31.6 µM and the IC50 (Ovcar3) was 5.01 µM. For the same compound, the IC50 (Ovcar443) was 10 µM, the IC50 (Hey) was 31.6 µM and the IC50 (Ovca429) was 3.16 µM. The IC50 (SKOV3) was 3.16 µM, the “IC50 in T29k cells” value (T29Kt1 cells [2]; listed as K29) was 6.6 and the “IC50 in T29k cells” value (T29Kt1 cells [2]) was 5. For the same compound, the IC50 (H460 cells [6]; [11]) was 0.00316 µM and the IC50 (H460 cells [6]; [12]) was 0.00316 µM.
